Read-outs that look alike come from different tables or passages of the source.
Test system: HCV 1b genotype
Test: HCV replicon assay (HCV-neo replicon cells, wild-type)
Type: cell-based, Hepatitis C virus
Conditions: HCV 1b genotype replicon
Summary of the method: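 HCV-neo replicon cells (wild-type) and replicon cells carrying NS5A resistance substitutions were treated with compounds; assay per O'Boyle et al. 2005, with luciferase-reporter read-out variants also used.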

[1] = Hepatitis C virus, class symbol, read-out: EC50 Range against HCV 1b
[2] = Hepatitis C virus, read-out: EC50 1b
[3] = Hepatitis C virus, class symbols, read-out: EC50 Range against HCV 1b
[4] = class symbol, read-out: EC50 Range against HCV 1b

SMILES | EC50 [1] [µM] | EC50 [3] [µM] | further results
O=C(Nc1ccc(-c2nnc(-c3ccc(NC(=O)[C@@H]4CCCN4C(=O)Cc4cccnc4)cc3)o2)cc1)[C@@H]1CCCN1C(=O)Cc1cccnc1 [Example D-63, (2S,2′S)-N,N′-(1,3,4-oxadiazole-2,5-diyldi-4,1-phenylene)bis[1-(3-pyridinylacetyl)-2-pyrrolidinecarboxamide]] | 1 to 10 | – | EC50 [2]: 1.94 µM
O=C(Nc1ccc(-c2cnc(-c3ccc(NC(=O)[C@@H]4CCCN4C(=O)c4cccc(F)n4)cc3)o2)cc1)[C@@H]1CCCN1C(=O)c1cccc(F)n1 [OL-50, (2S,2′S)-N,N′-(1,3-oxazole-2,5-diyldi-4,1-phenylene)bis(1-((6-fluoro-2-pyridinyl)carbonyl)-2-pyrrolidinecarboxamide)] | 0.1 to 0.999 | – | –
C[C@H](NC(=O)[C@H](c1ccccc1)N(C)C)C(=O)Nc1ccc(-c2nnc(-c3ccc(NC(=O)[C@H](C)NC(=O)[C@H](c4ccccc4)N(C)C)cc3)o2)cc1 [RK-38, (2S,2′S)-N,N′-(1,3,4-oxadiazole-2,5-diyldi-4,1-phenylene)bis(2-(((2S)-2-(dimethylamino)-2-phenylacetyl)amino)propanamide)] | – | < 0.00457 | EC50 [2]: < 0.005 µM
CCc1ccccc1C(=O)N1C[C@H](OC(C)(C)C)C[C@H]1C(=O)Nc1ccc(-c2cnc(-c3ccc(NC(=O)[C@@H]4C[C@@H](OC(C)(C)C)CN4C(=O)c4ccccc4CC)cc3)o2)cc1 [XY-65, (2S,4R,2′S,4′R)-N,N′-(1,3-oxazole-2,5-diyldi-4,1-phenylene)bis(4-tert-butoxy-1-(2-ethylbenzoyl)-2-pyrrolidinecarboxamide)] | – | 1 to 10 | –
CC(=O)N1CCC[C@H]1C(=O)Nc1ccc(-c2nnc(-c3ccc(NC(=O)[C@@H]4CCCN4C(=O)Cc4cccs4)cc3)o2)cc1 [Example D-62, (2S)-1-acetyl-N-[4-[5-[4-[[[(2S)-1-(2-thienylacetyl)-2-pyrrolidinyl]carbonyl]amino]phenyl]-1,3,4-oxadiazol-2-yl]phenyl]-2-pyrrolidinecarboxamide] | 1 to 10 | – | EC50 [2]: 3.47 µM
CN(C)C(C(=O)N1CCC[C@H]1C(=O)Nc1ccc(-c2cnc(-c3ccc(NC(=O)[C@@H]4CCCN4C(=O)C(c4ccccc4F)N(C)C)cc3)o2)cc1)c1ccccc1F (stereo partly drawn) [Example D-4, (2S,2′S)-N,N′-(2,5-oxazolediyldi-4,1-phenylene)bis[1-[(dimethylamino)(2-fluorophenyl)acetyl]-2-pyrrolidinecarboxamide]] | < 0.00457 | – | –
CC(C)C(=O)N1CCC[C@H]1C(=O)Nc1ccc(-c2cc(-c3ccc(NC(=O)[C@@H]4CCCN4C(=O)C(C)C)cc3)[nH]n2)cc1 [OL-31, (2S,2′S)-N,N′-(1H-pyrazole-3,5-diyldi-4,1-phenylene)bis(1-isobutyryl-2-pyrrolidinecarboxamide)] | 0.1 to 0.999 | – | –
O=C(Nc1ccc(-c2cnc(-c3ccc(NC(=O)[C@@H]4CCCN4C(=O)c4ccncc4)cc3)o2)cc1)[C@@H]1CCCN1C(=O)c1ccncc1 [JG-10, (2S,2′S)-N,N′-(1,3-oxazole-2,5-diyldi-4,1-phenylene)bis(1-isonicotinoyl-2-pyrrolidinecarboxamide)] | 0.1 to 0.999 | – | –
CC(C)C(C(=O)N1CCC[C@H]1C(=O)Nc1ccc(-c2cnc(-c3ccc(NC(=O)[C@@H]4CCCN4C(=O)C(C(C)C)N4C(=O)C5C6C=CC(C6)C5C4=O)cc3)o2)cc1)N1C(=O)C2C3C=CC(C3)C2C1=O (stereo partly drawn) [JR-19, (2S,2′S)-N,N′-(2,5-oxazolediyldi-4,1-phenylene)bis[1-[2-(1,3,3a,4,7,7a-hexahydro-1,3-dioxo-4,7-methano-2H-isoindol-2-yl)-3-methyl-1-oxobutyl]-2-pyrrolidinecarboxamide]] | – | 0.1 to 0.999 | –
O=C(Nc1ccc(-c2cnc(-c3ccc(NC(=O)[C@@H]4CCCN4C(=O)c4ccoc4)cc3)o2)cc1)[C@@H]1CCCN1C(=O)c1ccoc1 [XY-38, (2S,2′S)-N,N′-(1,3-oxazole-2,5-diyldi-4,1-phenylene)bis(1-(3-furoyl)-2-pyrrolidinecarboxamide)] | – | 0.00457 to 0.099 | –
CC(=O)N1CCC[C@H]1C(=O)Nc1ccc(-c2nc(-c3ccc(NC(=O)[C@@H]4C=CCN4C(=O)c4ccno4)cc3)cs2)cc1 [Example D-50, (2S)-N-[4-[2-[4-[[[(2S)-1-acetyl-2-pyrrolidinyl]carbonyl]amino]phenyl]-4-thiazolyl]phenyl]-2,5-dihydro-1-(5-isoxazolylcarbonyl)-1H-pyrrole-2-carboxamide] | 0.1 to 0.999 | – | –
CC(C)(C)OC(=O)N1CCCC1(Cc1ccccc1)C(=O)N1CCC[C@H]1C(=O)Nc1ccc(-c2cnc(-c3ccc(NC(=O)[C@@H]4CCCN4C(=O)C4(Cc5ccccc5)CCCN4C(=O)OC(C)(C)C)cc3)o2)cc1 (stereo partly drawn) [Example D-32, di-tert-butyl 2,2′-(1,3-oxazole-2,5-diylbis(4,1-phenylenecarbamoyl(2S)-2,1-pyrrolidinediylcarbonyl))bis(2-benzyl-1-pyrrolidinecarboxylate)] | – | – | EC50 [4]: 1 to 10 µM
O=C(Nc1ccc(-c2cnc(-c3ccc(NC(=O)[C@@H]4CCCN4C(=O)C(O)c4cccnc4)cc3)o2)cc1)[C@@H]1CCCN1C(=O)C(O)c1cccnc1 (stereo partly drawn) [JR-7, (2S,2′S)-N,N′-(2,5-oxazolediyldi-4,1-phenylene)bis[1-(hydroxy-3-pyridinylacetyl)-2-pyrrolidinecarboxamide]] | – | 0.00457 to 0.099 | –
C[C@H](NC(=O)[C@](C)(O)c1ccccc1)C(=O)Nc1ccc(-c2nnc(-c3ccc(NC(=O)[C@H](C)NC(=O)[C@](C)(O)c4ccccc4)cc3)o2)cc1 [RK-31, (2R,2′R)-N,N′-(1,3,4-oxadiazole-2,5-diylbis(4,1-phenyleneimino((2S)-1-oxo-1,2-propanediyl)))bis(2-hydroxy-2-phenylpropanamide)] | 0.1 to 0.999 | – | –
O=C(Nc1ccc(-c2nnc(-c3ccc(NC(=O)[C@@H]4CCCN4C(=O)[C@@H]4CCCO4)cc3)o2)cc1)[C@@H]1CCCN1C(=O)[C@@H]1CCCO1 [RK-14, (2S,2′S)-N,N′-(1,3,4-oxadiazole-2,5-diyldi-4,1-phenylene)bis(1-((2S)-tetrahydro-2-furanylcarbonyl)-2-pyrrolidinecarboxamide)] | 0.1 to 0.999 | – | –
CC(=O)N1CCC[C@H]1C(=O)Nc1ccc(-c2nc(-c3ccc(NC(=O)[C@@H]4C=CCN4C(=O)c4cccs4)cc3)cs2)cc1 [Example D-47, (2S)-N-[4-[2-[4-[[[(2S)-1-acetyl-2-pyrrolidinyl]carbonyl]amino]phenyl]-4-thiazolyl]phenyl]-2,5-dihydro-1-(2-thienylcarbonyl)-1H-pyrrole-2-carboxamide] | 1 to 10 | – | –
CCCC[C@H](NC(=O)Cc1ccccc1)C(=O)Nc1ccc(-c2cnc(-c3ccc(NC(=O)[C@H](CCCC)NC(=O)Cc4ccccc4)cc3)o2)cc1 [JG-17, (2S,2′S)-N,N′-(4,4′-(oxazole-2,5-diyl)bis(4,1-phenylene))bis(2-(2-phenylacetamido)hexanamide)] | – | – | EC50 [4]: 0.1 to 0.999 µM
COc1cccc2c(C(=O)N[C@@H](C)C(=O)Nc3ccc(-c4nnc(-c5ccc(NC(=O)[C@H](C)NC(=O)c6nc(Cl)cc7c(OC)cccc67)cc5)o4)cc3)nc(Cl)cc12 [RK-33, N,N′-(1,3,4-oxadiazole-2,5-diylbis(4,1-phenyleneimino((2S)-1-oxo-1,2-propanediyl)))bis(3-chloro-5-methoxy-1-isoquinolinecarboxamide)] | – | 0.1 to 0.999 | –
O=C(Nc1ccc(-c2nc[nH]c2-c2ccc(NC(=O)[C@@H]3CCCN3C(=O)c3nccc4ccccc34)cc2)cc1)[C@@H]1CCCN1C(=O)c1nccc2ccccc12 [JG-48, (2S,2′S)-N,N′-(1H-imidazole-4,5-diyldi-4,1-phenylene)bis(1-(1-isoquinolinylcarbonyl)-2-pyrrolidinecarboxamide)] | 1 to 10 | – | EC50 [2]: 2.34 µM

Source: patent publication US8735398B2 (Bristol-Myers Squibb Company, priority 2009, dated 2014)
